GI50 and TGI data for 7 compounds are collected here from PubChem BioAssay (NCI).

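These data come from cells grown in 96-well plates and exposed to compound for 48 hours at five concentrations. GI50 is the concentration that inhibits growth by half. TGI denotes the concentration required for complete inhibition of growth.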

Among the test systems are MOLT-4 leukemia; OVCAR-8 ovarian; NCI-H522 lung; SN12C renal; A498 renal; PC-3 prostate; MALME-3M melanoma; NCI-H226 lung; IGROV1 ovarian; UO-31 renal.
What all share (experiment): NCI-60 cell line screen, 48 h

Turning to `COc1cc2c3c(n(CCCN)c(=O)c2cc1OC)-c1ccc(N)cc1C3=O`, the GI50 in the experiment with MOLT-4 leukemia is 0.527 µM; in the experiment on OVCAR-8 ovarian, 2.86 µM; with NCI-H522 lung, 0.78 µM; in the experiment with SN12C renal it was 2.98 µM; in the experiment with A498 renal, 1.93 µM; in the experiment with PC-3 prostate, 1.19 µM. Moreover, the GI50 is 5.85 µM with MALME-3M melanoma, 2.85 µM in the experiment on NCI-H226 lung, 1.43 µM with IGROV1 ovarian and 37.2 µM in the experiment on UO-31 renal. The TGI with MOLT-4 leukemia came out at 4.7 µM; in the experiment on OVCAR-8 ovarian it was 59.1 µM; with NCI-H522 lung it was 16.7 µM; with SN12C renal, 27.3 µM; with A498 renal, 9.78 µM; in the experiment with PC-3 prostate, 22.1 µM. Besides, the TGI in the experiment on MALME-3M melanoma was 26.4 µM; in the experiment on NCI-H226 lung, 14.5 µM; with IGROV1 ovarian it was over 50.4 µM; in the experiment with UO-31 renal it was over 100 µM.
Consider `O=c1c(Oc2ccc(F)cc2F)cc2cnc(NC3CCOCC3)nc2n1C1CC1`, for which the GI50 with MOLT-4 leukemia was over 25 µM; with OVCAR-8 ovarian, over 25 µM; with NCI-H522 lung, over 25 µM; in the experiment with SN12C renal it was over 25 µM; in the experiment with A498 renal it was 2.72 µM; in the experiment on PC-3 prostate, over 25 µM. Moreover, the GI50 is over 25 µM with MALME-3M melanoma, over 22.9 µM in the experiment on NCI-H226 lung, over 25 µM with IGROV1 ovarian and 2.21 µM in the experiment with UO-31 renal. Moreover, the TGI with MOLT-4 leukemia, in the experiment with OVCAR-8 ovarian, in the experiment with NCI-H522 lung, in the experiment with SN12C renal, in the experiment on A498 renal and in the experiment with PC-3 prostate was over 25 µM in each case. Further, the TGI is over 25 µM in the experiment with MALME-3M melanoma, over 25 µM in the experiment with NCI-H226 lung, over 25 µM in the experiment on IGROV1 ovarian and 10.2 µM with UO-31 renal.
For `O=C(O)CSc1cc(NS(=O)(=O)c2ccc(Br)cc2)c2ccccc2c1O`, the GI50 is 3.08 µM with MOLT-4 leukemia; 3.73 µM with OVCAR-8 ovarian; 16.2 µM in the experiment on NCI-H522 lung; 2.27 µM with SN12C renal; 18.3 µM in the experiment with A498 renal; 5.78 µM with PC-3 prostate. Further, the GI50 is 8.02 µM in the experiment on MALME-3M melanoma, 20.1 µM with NCI-H226 lung, 3.03 µM in the experiment with IGROV1 ovarian and 12 µM with UO-31 renal. Moreover, the TGI in the experiment on MOLT-4 leukemia was over 23.3 µM; with OVCAR-8 ovarian it was 11 µM; in the experiment with NCI-H522 lung, 33.7 µM; in the experiment with SN12C renal, 5.44 µM; in the experiment on A498 renal, 34.7 µM; with PC-3 prostate, 43.8 µM. Besides, the TGI with MALME-3M melanoma is 21.1 µM; in the experiment with NCI-H226 lung, 44.9 µM; with IGROV1 ovarian, 8.76 µM; with UO-31 renal, 25.2 µM.
On to `Oc1c(Br)cc(Cl)cc1C(c1cc(Cl)cc(Br)c1O)C(Cl)(Cl)Cl`, for which the GI50 in the experiment on MOLT-4 leukemia was 3.32 µM; in the experiment on OVCAR-8 ovarian, 2.86 µM; with NCI-H522 lung, 1.86 µM; in the experiment on SN12C renal, 2.1 µM; in the experiment on A498 renal, 1.69 µM; with PC-3 prostate it was 2.11 µM. The GI50 in the experiment on MALME-3M melanoma is 2.73 µM; with NCI-H226 lung, 2.72 µM; in the experiment with IGROV1 ovarian, 3.95 µM; in the experiment with UO-31 renal it was 2.81 µM. Also, the TGI in the experiment with MOLT-4 leukemia amounted to 9.95 µM; in the experiment on OVCAR-8 ovarian, 13 µM; in the experiment on NCI-H522 lung, 6.07 µM; in the experiment with SN12C renal it was 11.8 µM; in the experiment with A498 renal, 8.24 µM; in the experiment on PC-3 prostate it was 8.21 µM. The TGI in the experiment with MALME-3M melanoma stood at 7.78 µM; in the experiment with NCI-H226 lung it was 8.61 µM; in the experiment with IGROV1 ovarian, 16.7 µM; in the experiment with UO-31 renal, 9.61 µM.
Take `CN1CCN(C(=O)/C=C/c2ccc([N+](=O)[O-])o2)CC1`: the GI50 in the experiment with MOLT-4 leukemia was 10.7 µM; with OVCAR-8 ovarian it was 18.5 µM; with NCI-H522 lung, 2.72 µM; in the experiment with SN12C renal, 13.8 µM; in the experiment with A498 renal, 16.8 µM; with PC-3 prostate it was 21.6 µM. Besides, the GI50 in the experiment with MALME-3M melanoma is 3.76 µM; with NCI-H226 lung, 22.4 µM; in the experiment on IGROV1 ovarian, 10.8 µM; in the experiment on UO-31 renal, 13.4 µM. In addition, the TGI in the experiment with MOLT-4 leukemia is 93.4 µM; in the experiment with OVCAR-8 ovarian, over 100 µM; in the experiment on NCI-H522 lung, 5.74 µM; with SN12C renal, 27.9 µM; in the experiment on A498 renal it was 34.3 µM; in the experiment with PC-3 prostate, over 100 µM. The TGI came out at 14.3 µM in the experiment with MALME-3M melanoma, 60 µM with NCI-H226 lung, 36.4 µM in the experiment on IGROV1 ovarian and 30.1 µM in the experiment with UO-31 renal.
With `CC[C@]12C=CCN3CC[C@@]4(c5ccc(OC)cc5N(C)[C@H]4[C@@](O)(C(=O)OC)[C@@H]1OC(=O)CCCN1CCN(CCCC(=O)O[C@@H]4[C@]5(CC)C=CCN6CC[C@@]7(c8ccc(OC)cc8N(C)[C@H]7[C@@]4(O)C(=O)OC)[C@@H]65)CC1)[C@@H]32`, the GI50 is 0.483 µM in the experiment with MOLT-4 leukemia; 1.55 µM in the experiment on OVCAR-8 ovarian; 1.78 µM in the experiment on NCI-H522 lung; 1.14 µM with SN12C renal; 1.6 µM with A498 renal; 0.35 µM in the experiment on PC-3 prostate. Further, the GI50 in the experiment on MALME-3M melanoma was 1.6 µM; in the experiment with NCI-H226 lung, 1.73 µM; with IGROV1 ovarian it was 0.635 µM; with UO-31 renal, 1.1 µM. For the same compound, the TGI in the experiment with MOLT-4 leukemia turned out to be 1.87 µM; with OVCAR-8 ovarian it was 3.36 µM; with NCI-H522 lung, 3.52 µM; in the experiment with SN12C renal it was 2.55 µM; with A498 renal, 3.49 µM; with PC-3 prostate, 1.57 µM. Also, the TGI in the experiment with MALME-3M melanoma turned out to be 3.11 µM; with NCI-H226 lung, 3.47 µM; in the experiment on IGROV1 ovarian, 1.99 µM; in the experiment on UO-31 renal, 2.33 µM.
With `COc1cc(/C=C/c2cc(/C=C/c3ccc(O)c(OC)c3)n(C(=O)Nc3ccc(C)cc3)n2)ccc1O`, the GI50 in the experiment with MOLT-4 leukemia was 0.291 µM; in the experiment on OVCAR-8 ovarian it was 0.465 µM; in the experiment on NCI-H522 lung it was 0.235 µM; in the experiment on SN12C renal it was 0.408 µM; with A498 renal, 1.43 µM; in the experiment with PC-3 prostate, 0.404 µM. In addition, the GI50 in the experiment on MALME-3M melanoma is 0.924 µM; with NCI-H226 lung it was 1.19 µM; in the experiment on IGROV1 ovarian, 0.667 µM; in the experiment with UO-31 renal, 0.272 µM. The TGI in the experiment on MOLT-4 leukemia is 1.06 µM; in the experiment on OVCAR-8 ovarian, 2.59 µM; in the experiment on NCI-H522 lung it was 0.909 µM; with SN12C renal, over 29.9 µM; with A498 renal, 4.87 µM; in the experiment with PC-3 prostate it was 2.53 µM. Besides, the TGI in the experiment on MALME-3M melanoma was determined as 3.57 µM; in the experiment with NCI-H226 lung it was 4.82 µM; in the experiment with IGROV1 ovarian, 3.94 µM; with UO-31 renal it was 1.72 µM.
